The values below come from US20060014644A1, “Phenylsulfonyl ureas, process for their preparation and their use as herbicides and plant growth regulators” (Hoechst Schering AgrEvo GmbH, priority 1999, published 2006).

The test system of assay [1] is harmful plants such as Sinapis alba, Echinochloa crus-galli, Lolium multiflorum, Chrysanthemum segetum, Setaria spp., Abutilon theophrasti, Amaranthus …. Briefly: Post-emergence effect on weeds (greenhouse pot test, visual scoring). The assay is classed as in vivo, monocotyledonous and dicotyledonous weeds. The following applies: three-leaf stage, application rate of 0.3 kg and less of active substance per hectare, scored visually after about 3 to 4 weeks by comparison with untreated controls. As for the experimental part:
2. Post-Emergence Effect on Weeds
Seeds or rhizome pieces of monocotyledonous and dicotyledonous weeds were placed in sandy loam soil in plastic pots, covered with soil and grown in a greenhouse under good growth conditions. Three weeks after sowing, the test plants were treated at the three-leaf stage. The compounds according to the invention which were formulated as wettable powders or emulsion concentrates were sprayed, at various dosages, onto the green parts of the plants at an application rate of 600 to 800 l of water/ha (converted). After the test plants had remained in the greenhouse for about 3 to 4 weeks under ideal growth conditions, the effect of the preparations was scored visually by comparison with untreated controls. The agents according to the invention also have good herbicidal activity post-emergence against a broad spectrum of economically important Weed grasses and broad-loafed weeds.

For assay [2], the system named is harmful plants such as Sinapis alba, Chrysanthemum segetum, Avena sativa, Stellaria media, Echinochloa crus-galli, Lolium multiflorum, Setaria spp., Abutilon …. Briefly: Pre-emergence effect on weeds (greenhouse pot test, visual scoring). The assay is classed as in vivo, monocotyledonous and dicotyledonous weed plants. As to conditions: application rate of 0.3 kg and less of active substance per hectar, scored visually after 3 to 4 weeks by comparison with untreated controls. The text has this: 1. Pre-Emergence Effect on Weeds
Seeds or rhizome pieces of monocotyledonous and dicotyledonous weed plants were placed in sandy loam soil in cardboard pots and covered with soil. The compounds according to the invention which were formulated in the form of wettable powders or emulsion concentrates were then applied to the surface of the soil cover in the form of aqueous suspensions or emulsions at an application rate of 600 to 800 l of water/ha (converted), in various dosages.
After the treatment, the pots were placed in a greenhouse and kept under good growth conditions for the weeds. After the test plants had emerged, the damage to the plants or the negative effect on the emergence was scored visually after a test period of 3 to 4 weeks by comparison with untreated controls. As shown by the test results, compounds according to the invention have good herbicidal pre-emergence activity against a broad spectrum of weed grasses and broad-leafed weeds.

The structures appear in SMILES notation.

As for `COC(=O)c1c(N(CC(C)C)CC(C)C)cccc1S(=O)(=O)NC(=O)Nc1nc(OC)cc(OC)n1` [Example 1-425], the “herbicidal activity against harmful plants, post-emergence” value (“herbicidal activity … post-emergence” below) in assay [1] is on record as “very good herbicidal activity”. Moreover, the “herbicidal activity against harmful plants, pre-emergence” value (“herbicidal activity … pre-emergence” for short) in assay [2] is given as “very good herbicidal activity”.
For the compound `COC(=O)c1c(N)cccc1S(=O)(=O)NC(=O)Nc1nc(OC)cc(OC)n1` [Example 1-11], the “herbicidal activity … post-emergence” value in assay [1] was “very good herbicidal activity”. In addition, the “herbicidal activity … pre-emergence” value in assay [2] is “very good herbicidal activity”.
For the compound `COC(=O)c1c(NC2CC2)cccc1S(=O)(=O)NC(=O)Nc1nc(OC)cc(OC)n1` [Example 1-353], the “herbicidal activity … post-emergence” value in assay [1] is listed as “very good herbicidal activity”. Moreover, the “herbicidal activity … pre-emergence” value in assay [2] is recorded as “very good herbicidal activity”.
Take `CCNc1cccc(S(=O)(=O)NC(=O)Nc2nc(C)nc(OC)n2)c1C(=O)OC` [Example 1-131]: the “herbicidal activity … post-emergence” value in assay [1] is reported as “very good herbicidal activity”. Also, the “herbicidal activity … pre-emergence” value in assay [2] is “very good herbicidal activity”.
In the case of `COC(=O)c1c(NCc2ccccc2)cccc1S(=O)(=O)NC(=O)Nc1nc(C)nc(OC)n1` [Example 1-383], the “herbicidal activity … post-emergence” value in assay [1] was “very good herbicidal activity”. In addition, the “herbicidal activity … pre-emergence” value in assay [2] is “very good herbicidal activity”.
In the case of `COC(=O)c1c(NC(C)C)cccc1S(=O)(=O)NC(=O)Nc1nc(C)nc(OC)n1` [Example 1-155], the “herbicidal activity … post-emergence” value in assay [1] was “very good herbicidal activity”. Further, the “herbicidal activity … pre-emergence” value in assay [2] was “very good herbicidal activity”.
In the case of `COC(=O)c1c(N)cccc1S(=O)(=O)NC(=O)Nc1nc(OC(F)F)cc(OC(F)F)n1` [Example 1-41], the “herbicidal activity … post-emergence” value in assay [1] is “very good herbicidal activity”. For the same compound, in assay [2], the “herbicidal activity … pre-emergence” value is given as “very good herbicidal activity”.
In the case of `COC(=O)c1c(NCc2ccccc2)cccc1S(=O)(=O)NC(=O)Nc1nc(OC)nc(OC)n1` [Example 1-387], the “herbicidal activity … post-emergence” value in assay [1] is recorded as “very good herbicidal activity”. Also, the “herbicidal activity … pre-emergence” value in assay [2] is “very good herbicidal activity”.
In the case of `COC(=O)c1c(NC(C)C)cccc1S(=O)(=O)[N-]C(=O)Nc1nc(OC)cc(OC)n1.[Na+]` [Example 1-154], the “herbicidal activity … post-emergence” value in assay [1] was “very good herbicidal activity”. Further, the “herbicidal activity … pre-emergence” value in assay [2] is recorded as “very good herbicidal activity”.
Regarding `CCC(C)Nc1cccc(S(=O)(=O)NC(=O)Nc2nc(OC)nc(OC)n2)c1C(=O)OC` (stereo not shown) [Example 1-271], in assay [1], the “herbicidal activity … post-emergence” value is “very good herbicidal activity”. Moreover, the “herbicidal activity … pre-emergence” value in assay [2] is listed as “very good herbicidal activity”.
Take `COC(=O)c1c(NCCCC(F)(F)F)cccc1S(=O)(=O)NC(=O)Nc1nc(C)nc(OC)n1` [Example 1-243]: in assay [1], the “herbicidal activity … post-emergence” value was “very good herbicidal activity”. Moreover, the “herbicidal activity … pre-emergence” value in assay [2] was “very good herbicidal activity”.
`COC(=O)c1c(NCC(C)C)cccc1S(=O)(=O)NC(=O)Nc1nc(OC)cc(OC)n1` [Example 1-177]: the “herbicidal activity … post-emergence” value in assay [1] is recorded as “very good herbicidal activity”. In addition, in assay [2], the “herbicidal activity … pre-emergence” value is reported as “very good herbicidal activity”.
As for `COC(=O)c1c(NC(C)C)cccc1S(=O)(=O)NC(=O)Nc1nc(OC)cc(OC)n1` [Example 1-153], in assay [1], the “herbicidal activity … post-emergence” value is reported as “very good herbicidal activity”. Moreover, the “herbicidal activity … pre-emergence” value in assay [2] is recorded as “very good herbicidal activity”.
In the case of `COC(=O)c1c(N(CC(C)C)CC(C)C)cccc1S(=O)(=O)[N-]C(=O)Nc1nc(OC)cc(OC)n1.[Na+]` [Example 1-426], in assay [1], the “herbicidal activity … post-emergence” value is reported as “very good herbicidal activity”. Besides, the “herbicidal activity … pre-emergence” value in assay [2] is reported as “very good herbicidal activity”.
Consider `COC(=O)c1c(NCCCC(F)(F)F)cccc1S(=O)(=O)NC(=O)Nc1nc(OC)nc(OC)n1` [Example 1-247], for which the “herbicidal activity … post-emergence” value in assay [1] is “very good herbicidal activity”. Moreover, the “herbicidal activity … pre-emergence” value in assay [2] is reported as “very good herbicidal activity”.
On to `COC(=O)c1c(NC2CC2)cccc1S(=O)(=O)NC(=O)Nc1nc(C)nc(OC)n1` [Example 1-355], for which, in assay [1], the “herbicidal activity … post-emergence” value is “very good herbicidal activity”. In addition, the “herbicidal activity … pre-emergence” value in assay [2] was “very good herbicidal activity”.
Take `COC(=O)c1c(NC(C)C)cccc1S(=O)(=O)NC(=O)Nc1nc(OC)nc(OC)n1` [Example 1-159]: the “herbicidal activity … post-emergence” value in assay [1] is “very good herbicidal activity”. Moreover, the “herbicidal activity … pre-emergence” value in assay [2] is on record as “very good herbicidal activity”.
`CCC(C)Nc1cccc(S(=O)(=O)NC(=O)Nc2nc(C)nc(OC)n2)c1C(=O)OC` (stereo not shown) [Example 1-267]: the “herbicidal activity … post-emergence” value in assay [1] is recorded as “very good herbicidal activity”. The “herbicidal activity … pre-emergence” value in assay [2] was “very good herbicidal activity”.
On to `COc1nc(NC(=O)NS(=O)(=O)c2cccc(N)c2C(=O)O)nc(OC)n1` [Example 1-9], for which, in assay [1], the “herbicidal activity … post-emergence” value was “very good herbicidal activity”. Also, the “herbicidal activity … pre-emergence” value in assay [2] is listed as “very good herbicidal activity”.
Regarding `COC(=O)c1c(N)cccc1S(=O)(=O)[N-]C(=O)Nc1nc(C)nc(OC)n1.[Na+]` [Example 1-16], the “herbicidal activity … post-emergence” value in assay [1] is “very good herbicidal activity”. Further, the “herbicidal activity … pre-emergence” value in assay [2] is listed as “very good herbicidal activity”.
For `CCOC(=O)c1c(N)cccc1S(=O)(=O)NC(=O)Nc1nc(OC)cc(OC)n1` [Example 1-45], the “herbicidal activity … post-emergence” value in assay [1] is “very good herbicidal activity”. In assay [2], the “herbicidal activity … pre-emergence” value was “very good herbicidal activity”.
`CCNc1cccc(S(=O)(=O)NC(=O)Nc2nc(OC)cc(OC)n2)c1C(=O)OC` [Example 1-129]: the “herbicidal activity … post-emergence” value in assay [1] was “very good herbicidal activity”. Further, the “herbicidal activity … pre-emergence” value in assay [2] is on record as “very good herbicidal activity”.
As for `CCOC(=O)c1c(NCC(C)C)cccc1S(=O)(=O)NC(=O)Nc1nc(Cl)cc(OC)n1` [Example 1-189], in assay [1], the “herbicidal activity … post-emergence” value was “very good herbicidal activity”. In addition, the “herbicidal activity … pre-emergence” value in assay [2] is given as “very good herbicidal activity”.
As to `COC(=O)c1c(N)cccc1S(=O)(=O)NC(=O)Nc1nc(Cl)cc(OC)n1` [Example 1-23], the “herbicidal activity … post-emergence” value in assay [1] is “very good herbicidal activity”. Also, the “herbicidal activity … pre-emergence” value in assay [2] is “very good herbicidal activity”.
Take `CCN(CC)c1cccc(S(=O)(=O)NC(=O)Nc2nc(OC)cc(OC)n2)c1C(=O)OC` [Example 1-417]: the “herbicidal activity … post-emergence” value in assay [1] is reported as “very good herbicidal activity”. Further, in assay [2], the “herbicidal activity … pre-emergence” value is given as “very good herbicidal activity”.
On to `COC(=O)c1c(N)cccc1S(=O)(=O)NC(=O)Nc1nc(C)cc(OC)n1` [Example 1-17], for which the “herbicidal activity … post-emergence” value in assay [1] is reported as “very good herbicidal activity”. In addition, the “herbicidal activity … pre-emergence” value in assay [2] is “very good herbicidal activity”.
For the compound `COC(=O)c1c(N)cccc1S(=O)(=O)NC(=O)Nc1nc(OC)nc(OC)n1` [Example 1-25], the “herbicidal activity … post-emergence” value in assay [1] is listed as “very good herbicidal activity”. Further, the “herbicidal activity … pre-emergence” value in assay [2] is given as “very good herbicidal activity”.
For `COC(=O)c1c(N)cccc1S(=O)(=O)[N-]C(=O)Nc1nc(OC)nc(OC)n1.[Na+]` [Example 1-26], in assay [1], the “herbicidal activity … post-emergence” value is listed as “very good herbicidal activity”. For the same compound, in assay [2], the “herbicidal activity … pre-emergence” value is on record as “very good herbicidal activity”.
Regarding `CCOC(=O)c1c(N)cccc1S(=O)(=O)NC(=O)Nc1nc(C)nc(OC)n1` [Example 1-47], the “herbicidal activity … post-emergence” value in assay [1] is given as “very good herbicidal activity”. The “herbicidal activity … pre-emergence” value in assay [2] is reported as “very good herbicidal activity”.
Take `COC(=O)c1c(N)cccc1S(=O)(=O)NC(=O)Nc1nc(C)nc(OC)n1` [Example 1-15]: the “herbicidal activity … post-emergence” value in assay [1] is “very good herbicidal activity”. Further, the “herbicidal activity … pre-emergence” value in assay [2] was “very good herbicidal activity”.
In the case of `COC(=O)c1c(NCC(C)C)cccc1S(=O)(=O)NC(=O)Nc1nc(C)nc(OC)n1` [Example 1-179], the “herbicidal activity … post-emergence” value in assay [1] was “very good herbicidal activity”. The “herbicidal activity … pre-emergence” value in assay [2] was “very good herbicidal activity”.
For `CNc1cccc(S(=O)(=O)NC(=O)Nc2nc(OC)cc(OC)n2)c1C(=O)OC` [Example 1-105], the “herbicidal activity … post-emergence” value in assay [1] was “very good herbicidal activity”. For the same compound, the “herbicidal activity … pre-emergence” value in assay [2] is “very good herbicidal activity”.
